Measured values reported in US6426087B1, “Orally administrable immediate-release and prolonged-release galenic form comprising an absorption-promoting agent and use of this absorption-promoting agent” (Merck Patent Gesellschaft mit, priority 1998, dated 2002).

Legend:
[1] = system: Caco-2 line; assay: Permeability of carbon 14-labelled acamprosate with promoting agents in the Caco-2 cellular model (diffusion chamber); type: in vitro ADME, human; settings: Papp of acamprosate
From the text: (§1) Actions of various promoting agents or mixtures of promoting agents on the permeability of calcium acetylhomotaurinate, in the Caco-2 cellular model.
(§2) A solution of carbon 14-labelled acamprosate, of known concentration, is placed in the apical compartment of a Grass Sweetana-type diffusion chamber which comprises a second so-called basolateral compartment separated from the first by an insert supporting a monocellular confluent culture of human colon adenocarcinoma […] epithelial cells, Caco-2 line.
(§3) Samples are collected at regular intervals from the second basolateral compartment. The acamprosate concentration is determined by […]. A simple calculation makes it possible to obtain the apparent permeability coefficient (Papp). The acamprosate solution is supplemented with various promoting agents or mixtures of promoting agents, under varying conditions. The influence of these agents on the apparent permeability coefficient (Papp) was measured. The experimental results are grouped together in the following table where the apparent permeability coefficient values (Papp) are expressed in cm/s.

[2] = as above; type: in vitro ADME, human; settings: human, Caco-2; acamprosate solution, promoting agent: None; apical to basolateral; read-out: Papp, Mean (n = 6)
From the text: as §1, §2, §3

Compound: CCCCCCCCCC(=O)O [Capric]
- Papp, Mean (n = 6) ([1]; promoting agent Conc. 0.25 % m/v): 63.6 10^−7 cm/s

Compound: CC(=O)NCCCS(=O)(=O)O [acamprosate, calcium 3-acetylamino-1-propanesulphonate, reference compound]
- Papp A→B [2]: 2.4 ×10⁻⁶ cm/s

Compound: C[C@H](CCC(=O)NCC(=O)[O-])[C@H]1CC[C@H]2[C@@H]3[C@H](O)C[C@@H]4C[C@H](O)CC[C@]4(C)[C@H]3C[C@H](O)[C@]12C.[Na+] [Na glycocholate, sodium glycocholate]
- Papp, Mean (n = 6) ([1]; promoting agent Conc. 0.2 % m/v): 114 10^−7 cm/s
